The source of these data is US12187773B2, “Modified GIP peptide analogues” (Antag Therapeutics ApS, priority 2018, dated 2025).

*1 amine or outer side, *2 acyl side, *3 side chain or, on linkers, in order; H or OH if unused. Where a SMILES comes first, the peptide text is derived from it. Side-chain parts run from the residue outwards. [ ]: non-standard residue; d: D form. The star is where a group is joined. C18 diacid = O=C(O)CCCCCCCCCCCCCCCCC(=O)*; C16 diacid = O=C(O)CCCCCCCCCCCCCCC(=O)*; γGlu = O=C(O)[C@H](CCC(=O)[*:2])N[*:1]; pGlu = O=C1CC[C@@H](C(=O)O)N1; AEEA = NCCOCCOCC(=O)O

What all share (type): cell-based
Experiment [1] addresses T1, human GIP receptor (Homo sapiens, UniProt P48546).
T1 sequence (P48546 22-466): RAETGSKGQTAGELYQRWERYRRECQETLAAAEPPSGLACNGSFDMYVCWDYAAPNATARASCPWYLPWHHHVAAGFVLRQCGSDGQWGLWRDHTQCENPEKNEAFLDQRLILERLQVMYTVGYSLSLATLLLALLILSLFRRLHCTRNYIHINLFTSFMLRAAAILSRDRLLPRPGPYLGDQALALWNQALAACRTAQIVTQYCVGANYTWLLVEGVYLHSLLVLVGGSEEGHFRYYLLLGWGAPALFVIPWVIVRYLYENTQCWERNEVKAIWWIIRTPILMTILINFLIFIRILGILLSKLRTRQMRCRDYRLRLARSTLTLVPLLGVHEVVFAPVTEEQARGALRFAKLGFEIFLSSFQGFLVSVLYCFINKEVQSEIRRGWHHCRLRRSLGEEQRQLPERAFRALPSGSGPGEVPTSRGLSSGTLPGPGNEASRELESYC
Briefly: cAMP accumulation, agonism (DiscoveRx HitHunter cAMP XS assay). To be noted: for cAMP agonism, Emax: Table 1B, DiscoveRx, COS-7 cells; for Emax: COS-7, read-out: cAMP agonism, Emax. More on the design: host or cells: COS-7 (transient, calcium phosphate; pCMV-Script vector). The gist of the method: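 cAMP accumulation measured by HitHunter cAMP XS in COS-7 cells transiently expressing human GIP receptor, after 30 min in HBS with 1 mM IBMX at 37 °C. Antagonists preincubated 10 min before GIP giving 50-80% of maximum, then 20 min more; agonist mode used 30 min ligand exposure.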
On the technique in general: Changes in cAMP serve as a functional read-out for many G protein-coupled receptors.

Experiment [2] deals with T1, human GIP receptor. Briefly: cAMP agonism (CisBio cAMP Dynamic 2 HTRF assay). The following applies: HEK293, read-out: cAMP agonism, % Efficacy, Table 1C, HEK-293 cells. On the procedure: To test for agonistic properties at the GIP receptor, compounds were diluted and added to cells as described above and incubated for 30 min at 37° C. The resulting increase in intracellular cAMP was determined using the CisBio cAMP Dynamic 2 HTRF Assay Kit as described above.
Background: Time-resolved FRET reads energy transfer from a long-lived donor to a nearby acceptor.

The target of experiment [3] is T1, human GIP receptor. Briefly: cAMP antagonism (CisBio cAMP Dynamic 2 HTRF assay). On the set-up: pCMV-Script vector. The following applies: Table 1C, CisBio, HEK-293 cells. The gist of the method:
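Four-parameter fits of cAMP dose-response gave pIC50. cAMP fall was quantified by HTRF competition, ratio 665/620 nm after 60 min at room temperature, against a cAMP standard curve.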

The target of experiment [4] is T1, human GIP receptor. Briefly: cAMP accumulation, antagonism (DiscoveRx HitHunter cAMP XS assay). The following applies: Table 1B, DiscoveRx; for cAMP antagonism, % inhib: COS-7 cells, % inhibition of Emax; for IC50: cAMP antagonism, nM (IC50), transiently transfected COS-7 cells. On the set-up: host or cells: COS-7 (transient, calcium phosphate; pCMV-Script vector). On the procedure:
Transient transfected COS-7 cells expressing the human GIP receptor were seeded in white 96-well plates with a density of 3.5*10^4/well. The day after, the cells were washed twice with Hepes buffered saline (HBS) buffer and incubated with HBS and 1 mM 3-isobutyl-1-methylxanthine (IBMX) for 30 min at 37° C. To test for agonistic properties, ligands were added and incubated for 30 min at 37° C. In order to test for antagonistic properties, the cells were preincubated with the antagonists for 10 min prior to the addition of the agonist and subsequent incubated for 20 additional min. The HitHunter™ cAMP XS assay (DiscoveRx) was carried out according to the manufacturer's instructions.
In order to develop a GIP receptor antagonist with improved antagonistic properties, individual amino acid substitutions were conducted on GIP(3-30)NH2 and in particular at positions: 16, 18, 30 or 3, 16, 18, 30. The obtained peptides were lipidated at position 18 directly or via a linker. Both the agonistic and antagonistic profiles of the compounds were tested in cAMP accumulation experiments done in transiently transfected COS-7 cells expressing the human GIP receptor. To investigate if these mutated analogues still retained their antagonistic properties, their ability to inhibit a GIP-mediated cAMP response corresponding to 50-80% of maximum activation was examined.

As for `CC[C@H](C)[C@H](NC(=O)[C@H](CO)NC(=O)[C@H](Cc1ccc(O)cc1)NC(=O)[C@H](CC(=O)O)NC(=O)[C@H](CO)NC(=O)[C@@H](NC(=O)[C@H](Cc1ccccc1)NC(=O)[C@@H](NC(=O)CNC(=O)CN)[C@@H](C)O)[C@@H](C)CC)C(=O)N[C@@H](C)C(=O)N[C@@H](CCSC)C(=O)N[C@@H](CC(=O)O)C(=O)N[C@@H](CCCNC(=N)N)C(=O)N[C@H](C(=O)N[C@@H](CCCCNC(=O)CCCCCCCCCCCCCCC(=O)O)C(=O)N[C@@H](CCC(N)=O)C(=O)N[C@@H](CCC(N)=O)C(=O)N[C@@H](CC(=O)O)C(=O)N[C@@H](Cc1ccccc1)C(=O)N[C@H](C(=O)N[C@@H](CC(N)=O)C(=O)N[C@@H](Cc1c[nH]c2ccccc12)C(=O)N[C@@H](CC(C)C)C(=O)N[C@@H](CC(C)C)C(=O)N[C@@H](C)C(=O)N[C@@H](CCC(N)=O)C(=O)N[C@@H](CCCNC(=N)N)C(N)=O)C(C)C)[C@@H](C)CC` [AT496] (H-GGTFISDYSIAMDRIK(C16 diacid)QQDFVNWLLAQR-NH2; N-terminus assumed), the “cAMP agonism, Emax” value at human GIP receptor [1] is reported as “No Agonism”. Besides, the Emax on human GIP receptor [2] stood at 0%. The “cAMP antagonism, % inhib” value on human GIP receptor [3] and at human GIP receptor [4] was 100% each time. Also, the IC50 (commonly the concentration needed to halve the response being measured) on human GIP receptor [3] (cAMP antagonism, nM (IC50), agonist GIP1-42 at EC50) was determined as 39.8 nM; on human GIP receptor [4], 12 nM.
Turning to `CC[C@H](C)[C@H](NC(=O)[C@H](CO)NC(=O)[C@H](Cc1ccc(O)cc1)NC(=O)[C@H](CC(=O)O)NC(=O)[C@H](CO)NC(=O)[C@@H](NC(=O)[C@H](Cc1ccccc1)NC(=O)[C@@H](NC(=O)CNC(=O)[C@@H](N)CO)[C@@H](C)O)[C@@H](C)CC)C(=O)N[C@@H](C)C(=O)N[C@@H](CCSC)C(=O)N[C@@H](CC(=O)O)C(=O)N[C@@H](CCCNC(=N)N)C(=O)N[C@H](C(=O)N[C@@H](CCCCNC(=O)COCCOCCNC(=O)COCCOCCNC(=O)CC[C@H](NC(=O)CCCCCCCCCCCCCCC(=O)O)C(=O)O)C(=O)N[C@@H](CCC(N)=O)C(=O)N[C@@H](CCC(N)=O)C(=O)N[C@@H](CC(=O)O)C(=O)N[C@@H](Cc1ccccc1)C(=O)N[C@H](C(=O)N[C@@H](CC(N)=O)C(=O)N[C@@H](Cc1c[nH]c2ccccc12)C(=O)N[C@@H](CC(C)C)C(=O)N[C@@H](CC(C)C)C(=O)N[C@@H](C)C(=O)N[C@@H](CCC(N)=O)C(=O)N[C@@H](CCCNC(=N)N)C(N)=O)C(C)C)[C@@H](C)CC` [AT516] (H-SGTFISDYSIAMDRIK([AEEA-AEEA-γGlu-C16 diacid])QQDFVNWLLAQR-NH2; N-terminus assumed), the “cAMP agonism, Emax” value on human GIP receptor [1] was “No Agonism”. At human GIP receptor [2], the Emax amounted to 0%. For the same molecule, on human GIP receptor [3], the “cAMP antagonism, % inhib” value worked out at 88%. Besides, at human GIP receptor [4], the “cAMP antagonism, % inhib” value is reported as 100% and the half-inhibitory concentration (IC50) is 31 nM.
The like results for `CC[C@H](C)[C@H](NC(=O)[C@H](CO)NC(=O)[C@H](Cc1ccc(O)cc1)NC(=O)[C@H](CC(=O)O)NC(=O)[C@H](CO)NC(=O)[C@@H](NC(=O)[C@H](Cc1ccccc1)NC(=O)[C@@H](NC(=O)CNC(=O)[C@@H]1CCC(=O)N1)[C@@H](C)O)[C@@H](C)CC)C(=O)N[C@@H](C)C(=O)N[C@@H](CCSC)C(=O)N[C@@H](CC(=O)O)C(=O)N[C@@H](CCCNC(=N)N)C(=O)N[C@H](C(=O)N[C@@H](CCCCNC(=O)CCCCCCCCCCCCCCCCC(=O)O)C(=O)N[C@@H](CCC(N)=O)C(=O)N[C@@H](CCC(N)=O)C(=O)N[C@@H](CC(=O)O)C(=O)N[C@@H](Cc1ccccc1)C(=O)N[C@H](C(=O)N[C@@H](CC(N)=O)C(=O)N[C@@H](Cc1c[nH]c2ccccc12)C(=O)N[C@@H](CC(C)C)C(=O)N[C@@H](CC(C)C)C(=O)N[C@@H](C)C(=O)N[C@@H](CCC(N)=O)C(=O)N[C@@H](CCCNC(=N)N)C(N)=O)C(C)C)[C@@H](C)CC` [AT391] ([pGlu]GTFISDYSIAMDRIK(C18 diacid)QQDFVNWLLAQR-NH2) were, in that order, “No Agonism”, 0%, 95%, 100% and 10 nM.
Turning to `CC[C@H](C)[C@H](NC(=O)[C@H](CO)NC(=O)[C@H](Cc1ccc(O)cc1)NC(=O)[C@H](CC(=O)O)NC(=O)[C@H](CO)NC(=O)[C@@H](NC(=O)[C@H](Cc1ccccc1)NC(=O)[C@@H](NC(=O)CNC(=O)[C@@H]1CCCN1)[C@@H](C)O)[C@@H](C)CC)C(=O)N[C@@H](C)C(=O)N[C@@H](CCSC)C(=O)N[C@@H](CC(=O)O)C(=O)N[C@@H](CCCNC(=N)N)C(=O)N[C@H](C(=O)N[C@@H](CCCCNC(=O)COCCOCCNC(=O)COCCOCCNC(=O)CC[C@H](NC(=O)CCCCCCCCCCCCCCC(=O)O)C(=O)O)C(=O)N[C@@H](CCC(N)=O)C(=O)N[C@@H](CCC(N)=O)C(=O)N[C@@H](CC(=O)O)C(=O)N[C@@H](Cc1ccccc1)C(=O)N[C@H](C(=O)N[C@@H](CC(N)=O)C(=O)N[C@@H](Cc1c[nH]c2ccccc12)C(=O)N[C@@H](CC(C)C)C(=O)N[C@@H](CC(C)C)C(=O)N[C@@H](C)C(=O)N[C@@H](CCC(N)=O)C(=O)N[C@@H](CCCNC(=N)N)C(=O)O)C(C)C)[C@@H](C)CC` [AT279] (H-PGTFISDYSIAMDRIK([AEEA-AEEA-γGlu-C16 diacid])QQDFVNWLLAQR-OH; N-terminus assumed), the Emax at human GIP receptor [1] was found to be 17%; at human GIP receptor [2], 14%. Moreover, the “cAMP antagonism, % inhib” value on human GIP receptor [3] was found to be 81%. For the same molecule, the IC50 on human GIP receptor [4] is 19 nM.
On to `CC[C@H](C)[C@H](NC(=O)[C@H](CO)NC(=O)[C@H](Cc1ccc(O)cc1)NC(=O)[C@H](CC(=O)O)NC(=O)[C@H](CO)NC(=O)[C@@H](NC(=O)[C@H](Cc1ccccc1)NC(=O)[C@@H](NC(=O)CNC(=O)CN)[C@@H](C)O)[C@@H](C)CC)C(=O)N[C@@H](C)C(=O)N[C@@H](CCSC)C(=O)N[C@@H](CC(=O)O)C(=O)N[C@@H](CCCNC(=N)N)C(=O)N[C@H](C(=O)N[C@@H](CCCCNC(=O)COCCOCCNC(=O)CC[C@H](NC(=O)CCCCCCCCCCCCCCC(=O)O)C(=O)O)C(=O)N[C@@H](CCC(N)=O)C(=O)N[C@@H](CCC(N)=O)C(=O)N[C@@H](CC(=O)O)C(=O)N[C@@H](Cc1ccccc1)C(=O)N[C@H](C(=O)N[C@@H](CC(N)=O)C(=O)N[C@@H](Cc1c[nH]c2ccccc12)C(=O)N[C@@H](CC(C)C)C(=O)N[C@@H](CC(C)C)C(=O)N[C@@H](C)C(=O)N[C@@H](CCC(N)=O)C(=O)N[C@@H](CCCNC(=N)N)C(=O)O)C(C)C)[C@@H](C)CC` [AT269] (HELM PEPTIDE1{G.G.T.F.I.S.D.Y.S.I.A.M.D.R.I.K.Q.Q.D.F.V.N.W.L.L.A.Q.R}|PEPTIDE2{[O=C(O)CCCCCCCCCCCCCCC(=O)[*:2]].[gGlu].[O=C(COCCOCCN[*:1])[*:2]]}$PEPTIDE1,PEPTIDE2,16:R3-3:R2$$$V2.0; N-terminus assumed), for which the Emax is 12% on human GIP receptor [1] and 0% at human GIP receptor [2]. In addition, the IC50 at human GIP receptor [4] came to 91 nM.
